Results taken from US10343992B2, “1-cyano-pyrrolidine compounds as USP30 inhibitors” (MISSION THERAPEUTICS LIMITED, priority 2015, dated 2019).

The compounds below were run against USP30 (Homo sapiens (Human), UniProt Q70CQ3) (assay: USP30 biochemical FP or FI IC50 assay). Settings: read-out: IC50 range.
Summary of the method: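 Human USP30 preincubated 30 min at room temperature with compound (8-point series, 100 µM top final) in Tris pH 7.5, Tween 20, BSA, 5 mM β-mercaptoethanol, in duplicate. FP format: 50 nM TAMRA-peptide–isopeptide-ubiquitin substrate, ex 540/em 590. FI format: 100 nM ubiquitin-rhodamine 110, ex 487/em 535. Both read at 0 and after 2 h at room temperature.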

USP30, sequence (Q70CQ3 57-517): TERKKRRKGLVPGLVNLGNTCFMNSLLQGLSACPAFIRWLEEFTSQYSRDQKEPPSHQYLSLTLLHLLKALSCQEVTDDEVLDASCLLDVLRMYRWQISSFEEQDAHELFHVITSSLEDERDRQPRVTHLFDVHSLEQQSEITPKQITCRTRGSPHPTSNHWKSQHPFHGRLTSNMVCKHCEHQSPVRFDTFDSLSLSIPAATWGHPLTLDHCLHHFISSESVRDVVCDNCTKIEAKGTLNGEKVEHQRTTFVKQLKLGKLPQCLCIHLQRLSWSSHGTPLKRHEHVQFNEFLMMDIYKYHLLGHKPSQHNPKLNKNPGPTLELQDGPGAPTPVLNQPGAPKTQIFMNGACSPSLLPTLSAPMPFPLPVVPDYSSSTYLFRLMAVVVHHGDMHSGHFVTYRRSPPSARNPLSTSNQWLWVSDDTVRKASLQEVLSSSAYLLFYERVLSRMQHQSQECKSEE

IC50 [nM] | SMILES
< 100 | N#CN1CC[C@@H](NC(=O)c2ccc(Nc3nccc(C4CC4)n3)c(F)c2F)C1 [Example 214, (R)-N-(1-cyanopyrrolidin-3-yl)-4-((4-cyclopropylpyrimidin-2-yl)amino)-2,3-difluorobenzamide]
100 to 1000 | CC(C)C(=O)N(C)c1ccnc(C(=O)N[C@@H]2CCN(C#N)C2)c1 [Example 215, (R)-N-(1-cyanopyrrolidin-3-yl)-4-(N-methylisobutyramido)picolinamide]
100 to 1000 | N#CN1CC[C@@H](NC(=O)c2ccc(-c3ccccn3)cn2)C1 [Example 216, (R)-N-(1-cyanopyrrolidin-3-yl)-[2, 3′-bipyridine]-6′-carboxamide]
100 to 1000 | N#CN1CC[C@@H](NC(=O)c2cc(-c3ccccn3)ccn2)C1 [Example 217, (R)-N-(1-cyanopyrrolidin-3-yl)-[2, 4′-bipyridine]-2′-carboxamide]
100 to 1000 | N#CN1CC[C@@H](NC(=O)c2cc(-c3ccc(C(F)(F)F)cc3)no2)C1 [Example 219, (R)-N-(1-cyanopyrrolidin-3-yl)-3-(4-(trifluoromethyl)phenyl)isoxazole-5-carboxamide]
100 to 1000 | COc1ccc(-c2cc(C(=O)N[C@@H]3CCN(C#N)C3)on2)cc1OC [Example 220, (R)-N-(1-cyanopyrrolidin-3-yl)-3-(3,4-dimethoxyphenyl)isoxazole-5-carboxamide]
< 100 | COc1cccc(-c2cc(C(=O)N[C@@H]3CCN(C#N)C3)on2)c1 [Example 221, (R)-N-(1-cyanopyrrolidin-3-yl)-3-(3-methoxyphenyl)isoxazole-5-carboxamide]
100 to 1000 | N#CN1CC[C@@H](NC(=O)C2CCN(c3ccccc3)C2)C1 (stereo partly drawn) [Example 222, N-((R)-1-cyanopyrrolidin-3-yl)-1-phenylpyrrolidine-3-carboxamide]
< 100 | Cc1cn(-c2ccc(C(=O)N[C@@H]3CCN(C#N)C3)cc2F)cn1 [Example 223, (R)-N-(1-cyanopyrrolidin-3-yl)-3-fluoro-4-(4-methyl-1H-imidazol-1-yl)benzamide]
100 to 1000 | Cc1cn(-c2ccc(C(=O)N(C)[C@@H]3CCN(C#N)C3)cc2F)cn1 [Example 224, (R)-N-(1-cyanopyrrolidin-3-yl)-3-fluoro-N-methyl-4-(4-methyl-1H-imidazol-1-yl)benzamide]
1000 to 10000 | N#CN1CC[C@@H](NC(=O)N2CCC(c3ccccn3)C2)C1 (stereo partly drawn) [Example 225, N-((R)-1-cyanopyrrolidin-3-yl)-3-(pyridin-2-yl)pyrrolidine-1-carboxamide]
1000 to 10000 | Cn1cc(C2CCN(C(=O)N[C@@H]3CCN(C#N)C3)C2)cn1 (stereo partly drawn) [Example 226, N-((R)-1-cyanopyrrolidin-3-yl)-3-(1-methyl-1H-pyrazol-4-yl)pyrrolidine-1-carboxamide]
100 to 1000 | CN(c1ccc(C(=O)N[C@@H]2CCN(C#N)C2)c(F)c1)S(=O)(=O)c1ccccc1 [Example 228, (R)-N-(1-cyanopyrrolidin-3-yl)-2-fluoro-4-(N-methylphenylsulfonamido)benzamide]
100 to 1000 | Cn1cc(-c2ccc3cc(C(=O)N[C@@H]4CCN(C#N)C4)n(C)c3c2)cn1 [Example 229, (R)-N-(1-cyanopyrrolidin-3-yl)-1-methyl-6-(1-methyl-1H-pyrazol-4-yl)-1H-indole-2-carboxamide]
100 to 1000 | CN(C(=O)Nc1ccnc(N2Cc3ccccc3C2)c1)[C@@H]1CCN(C#N)C1 [Example 231, (R)-1-(1-cyanopyrrolidin-3-yl)-3-(2-(isoindolin-2-yl)pyridin-4-yl)-1-methylurea]
< 100 | Cn1cc(-c2ccc3c(c2)c(F)c(C(=O)N[C@@H]2CCN(C#N)C2)n3C)cn1 [Example 232, (R)-N-(1-cyanopyrrolidin-3-yl)-3-fluoro-1-methyl-5-(1-methyl-1H-pyrazol-4-yl)-1H-indole-2-carboxamide]
100 to 1000 | Cn1cc(-c2ccn3c(C(=O)N[C@@H]4CCN(C#N)C4)ncc3c2)cn1 [Example 233, (R)-N-(1-cyanopyrrolidin-3-yl)-7-(1-methyl-1H-pyrazol-4-yl)imidazo[1,5-a]pyridine-3-carboxamide]
< 100 | N#CN1CC[C@@H](NC(=O)N2CC(c3ccn(-c4ccccc4)n3)C2)C1 [Example 234, (R)-N-(1-cyanopyrrolidin-3-yl)-3-(1-phenyl-1H-pyrazol-3-yl)azetidine-1-carboxamide]
100 to 1000 | N#CN1CC[C@@H](NC(=O)N2CC(c3ccn(-c4cnccn4)n3)C2)C1 [Example 235, (R)-N-(1-cyanopyrrolidin-3-yl)-3-(1-(pyrazin-2-yl)-1H-pyrazol-3-yl)azetidine-1-carboxamide]

IC50 [nM] | SMILES
100 to 1000 | N#CN1CC[C@@H](NC(=O)N2CC(c3ccnc(-c4ccccc4)n3)C2)C1 [Example 236, (R)-N-(1-cyanopyrrolidin-3-yl)-3-(2-phenylpyrimidin-4-yl)azetidine-1-carboxamide]
< 100 | N#CN1CC[C@@H](NC(=O)N2CC(c3ccnc(-c4ccc(Cl)cc4)n3)C2)C1 [Example 237, (R)-3-(2-(4-chlorophenyl)pyrimidin-4-yl)-N-(1-cyanopyrrolidin-3-yl)azetidine-1-carboxamide]
< 100 | N#CN1CC[C@@H](NC(=O)N2CC(OCc3ccccc3)(c3ccccc3)C2)C1 [Example 238, (R)-3-(benzyloxy)-N-(1-cyanopyrrolidin-3-yl)-3-phenylazetidine-1-carboxamide]
< 100 | N#CN1CC[C@@H](NC(=O)c2ccc3c(c2)CCN3c2nccc(C3CC3)n2)C1 [Example 239, (R)-N-(1-cyanopyrrolidin-3-yl)-1-(4-cyclopropylpyrimidin-2-yl)indoline-5-carboxamide]
< 100 | CN(C(=O)c1ccc2c(c1)CCN2c1nccc(C2CC2)n1)[C@@H]1CCN(C#N)C1 [Example 240, (R)-N-(1-cyanopyrrolidin-3-yl)-1-(4-cyclopropylpyrimidin-2-yl)-N-methylindoline-5-carboxamide]
< 100 | Cc1cc(-c2cccc(NC(=O)N3CC[C@@H]4CN(C#N)C[C@@H]43)c2)ccn1 [Example 241, (3aR,6aR)-5-cyano-N-(3-(2-methylpyridin-4-yl)phenyl)hexahydropyrrolo[3,4-b]pyrrole-1(2H)-carboxamide]
100 to 1000 | N#CN1C[C@H]2CCN(C(=O)N3CC(Oc4ccccc4)C3)[C@H]2C1 [Example 247, (3aR,6aR)-1-(3-phenoxyazetidine-1-carbonyl)hexahydropyrrolo[3,4-b]pyrrole-5(1H)-carbonitrile]
1000 to 10000 | N#CN1CCCC(NC(=O)c2cccc(-c3ccccc3)c2)C1 (stereo not drawn) [Example 248, N-(1-cyanopiperidin-3-yl)-[1,1′-biphenyl]-3-carboxamide]
1000 to 10000 | N#CN1CCCC(NC(=O)Nc2cccc(Oc3ccccc3)c2)C1 (stereo not drawn) [Example 250, 1-(1-cyanopiperidin-3-yl)-3-(3-phenoxyphenyl)urea]
100 to 1000 | N#CN1CCC(NC(=O)Nc2ccc(Cl)cc2Cl)C1 (stereo not drawn) [Example 251, 1-(1-cyanopyrrolidin-3-yl)-3-(2,4-dichlorophenyl)urea]
100 to 1000 | N#CN1CCC(NC(=O)Nc2ccc(C(F)(F)F)cc2)C1 (stereo not drawn) [Example 252, 1-(1-cyanopyrrolidin-3-yl)-3-(4-(trifluoromethyl)phenyl)urea]
100 to 1000 | N#CN1CCC(NC(=O)Nc2cccc(Cc3ccccc3)c2)C1 (stereo not drawn) [Example 253, 1-(3-benzylphenyl)-3-(1-cyanopyrrolidin-3-yl)urea]
< 100 | N#CN1CCC(NC(=O)Nc2cccc(Oc3ccccc3)c2)C1 (stereo not drawn) [Example 255, 1-(1-cyanopyrrolidin-3-yl)-3-(3-phenoxyphenyl)urea]
100 to 1000 | CN(C(=O)Nc1cccc(Cc2ccccc2)c1)C1CCN(C#N)C1 (stereo not drawn) [Example 256, 3-(3-benzylphenyl)-1-(1-cyanopyrrolidin-3-yl)-1-methylurea]
100 to 1000 | CN(C(=O)Nc1cccc(Cl)c1)C1CCN(C#N)C1 (stereo not drawn) [Example 257, 3-(3-chlorophenyl)-1-(1-cyanopyrrolidin-3-yl)-1-methylurea]
< 100 | CN(C(=O)Nc1cccc(Oc2ccccc2)c1)C1CCN(C#N)C1 (stereo not drawn) [Example 258, 1-(1-cyanopyrrolidin-3-yl)-1-methyl-3-(3-phenoxyphenyl)urea]
< 100 | CN(C(=O)Nc1ccc(-c2ccccc2)cc1)C1CCN(C#N)C1 (stereo not drawn) [Example 259, 3-([1,1′-biphenyl]-4-yl)-1-(1-cyanopyrrolidin-3-yl)-1-methylurea]
100 to 1000 | CN(C(=O)Nc1ccc(Cl)cc1Cl)C1CCN(C#N)C1 (stereo not drawn) [Example 260, 1-(1-cyanopyrrolidin-3-yl)-3-(2,4-dichlorophenyl)-1-methylurea]
100 to 1000 | CN(C(=O)Nc1ccc(C(F)(F)F)cc1)C1CCN(C#N)C1 (stereo not drawn) [Example 261, 1-(1-cyanopyrrolidin-3-yl)-1-methyl-3-(4-(trifluoromethyl)phenyl)urea]

SMILES | IC50 [nM]
Cc1cc(-c2ccc(NC(=O)N3CC[C@@H]4CN(C#N)C[C@@H]43)cc2)ccn1 [Example 242, (3aR,6aR)-5-cyano-N-(4-(2-methylpyridin-4-yl)phenyl)hexahydropyrrolo[3,4-b]pyrrole-1(2H)-carboxamide] | < 100
Cc1cc(-c2ccc(NC(=O)N3CC[C@@H]4CN(C#N)C[C@@H]43)c(F)c2)ccn1 [Example 243, (3aR,6aR)-5-cyano-N-(2-fluoro-4-(2-methylpyridin-4-yl)phenyl)hexahydropyrrolo[3,4-b]pyrrole-1(2H)-carboxamide] | 100 to 1000
Cc1cc(-c2ccc(NC(=O)N3CC[C@@H]4CN(C#N)C[C@@H]43)nc2)ccn1 [Example 244, (3aR,6aR)-5-cyano-N-(2′-methyl-[3,4′-bipyridin]-6-yl)hexahydropyrrolo[3,4-b]pyrrole-1(2H)-carboxamide] | < 100
Cn1cc(-c2ccc(NC(=O)N3CC[C@@H]4CN(C#N)C[C@@H]43)c(F)c2)cn1 [Example 245, (3aR,6aR)-5-cyano-N-(2-fluoro-4-(1-methyl-1H-pyrazol-4-yl)phenyl)hexahydropyrrolo[3,4-b]pyrrole-1(2H)-carboxamide] | 100 to 1000
